These results are taken from US8435950B2, “Anti-aging peptides and cosmetic and/or pharmaceutical composition containing same” (ISP Investments, priority 2009, dated 2013).

Where no end group is shown, it is not given here.

Assay [1] deals with Clock protein. Kind of assay: Western blot of Clock protein expression in cultured fibroblasts. The conditions noted are these: 16 hr, peptide diluted to 1% (from a 10^-4M solution), untreated control = 100%, Experiment 1. The assay is classed as cell-based. As to the method: (§1) A study of the activating effect of the peptide SEQ ID no.1 was carried out by evaluating the expression of the Clock protein by western blot in cultured fibroblasts and by immunohistochemistry by labeling the Clock protein by means of immunolabeling. The technique of western blotting is a semi-quantitative method which makes it possible to evaluate the level of Clock protein in dermal cells.
Cultured fibroblasts are cultivated in containers with a diameter of 100 mm at 37° C. in a humidified atmosphere containing 5% CO2 for 16 hr in the presence or absence of the peptide SEQ ID no.1, diluted to 1% (from a 10^−4M solution). The cells are rinsed and then removed from the support with the aid of an extraction buffer (20 mM TRIS, 150 mM NaCl, 10 mM EDTA, 0.2% triton […]) in the presence of a cocktail of protease inhibitors (Sigma). The proteins thus extracted are centrifuged at 4° C. at 10000 rpm, before being dosed by the BCA protein dosing kit (Pierce). The cellular lysates are mixed with a denaturing buffer and subjected to SDS-PAGE electrophoresis. The gel used is 4-12% Nupage (Invitrogen). The proteins are then transferred to a nitrocellulose membrane (Pal corporation). […] The quantitative evaluation of the proteins present in the cells was carried out using the chemiimager software (Alpha innotech Corporation USA).
Background: In western blotting, separated proteins are transferred to a membrane and probed.

Assay [2] relates to Clock protein. Kind of assay: Ex vivo immunolabeling of Clock protein in skin biopsies. Type of assay: cell-based. The conditions noted are these: human skin ex vivo, peptide diluted to 1%, topical, 48 hr. As to the method:
(§2) A study of the activating effect of the peptide SEQ ID no.1 was carried out by evaluating the expression of Clock and Per-1 proteins in skin biopsies ex vivo.
(§3) Ex vivo studies by immunolabeling have made it possible to evidence the expression of Clock and Per-1 proteins in skin samples. Samples of human skin are cultured at the air/liquid interface. The peptide SEQ ID no.1 diluted to 1% (from a 10^−4M solution) is applied topically to these samples for 48 hr at a rate of two times per 24 hr.
(§4) Skin samples not treated with the peptide SEQ ID no.1 serve as a control. The skin samples are fixed with 10% formaldehyde and enclosed in paraffin. Sectional cuts of 3 μm are then made with a microtome. The immunolabeling is carried out after removal of the paraffin and unmasking of the antigenic sites.
The immunolabeling for the Clock protein is carried out by means of an antibody (ABcam) diluted 1/250 and a secondary antibody diluted 1/50 and coupled to a fluorochrome.
(§5) The slides are then mounted in a suitable medium and observed under epifluorescence microscope (Nikon Eclipse E600).

The test system of assay [3] is Per-1 protein. Kind of assay: Ex vivo immunolabeling of Per-1 protein in skin biopsies aged artificially during culture. As to conditions: after 62 hr of treatment. The assay is classed as cell-based, human. As to the method: (§6) A study of the activating effect of the peptide SEQ ID no.1 was carried out by evaluating the expression of Clock and Per-1 proteins in skin models, aged artificially during culture. The analysis was carried out after 62 hr and 134 hr of culturing.
(§7) Ex vivo studies by immunolabeling have made it possible to evidence the expression of Clock and Per-1 proteins in skin samples aged during culture. Samples of human skin are cultured at the air/liquid interface for 62 hr and 134 hr. The peptide SEQ ID no.1 diluted to 1% (from a 10^−4M solution) is applied topically to these samples at a rate of two times per day during the period of the experiment.
(§8) Skin samples not treated with the peptide SEQ ID no.1 serve as a control. The skin samples are fixed with 10% formaldehyde and enclosed in paraffin. Sectional cuts of 3 μm are made with a microtome. The immunolabeling is carried out after removal of the paraffin and unmasking of the antigenic sites. The immunolabeling for the Clock protein is carried out by means of an antibody (ABcam) diluted 1/250 and a secondary antibody diluted 1/50 and coupled to a fluorochrome.
The immunolabeling for the Per-1 protein is carried out by a polyclonal antibody (Cosmobio) diluted 1/100 and a secondary antibody diluted 1/50 and coupled to a fluorochrome. […]

For a further assay, the system named is skin biopsies. Kind of assay: Protective effect on morphology of skin biopsies during aging (hematoxyline/eosin histology). The conditions noted are these: 62 and 134 h culture, peptide diluted to 1% topically twice per day; untreated skin damaged. The assay is classed as cell-based, human. How it is done: A study of the protective effect of the peptide SEQ ID no.1 was carried out in parallel by evaluating the damage caused by aging at 62 hr and 134 hr by way of immunohistology by means of colouration of sectional cuts of skin.
Samples of human skin are placed in culture at the air/liquid interface. The peptide SEQ ID no.1 diluted to 1% (from a 10^−4M solution) is applied topically to these samples for 62 hr and 134 hr. The application is renewed twice per day during the period of the experiment. Untreated skin samples serve as a control during the experiment. The skin samples are fixed with 4% formaldehyde and enclosed in paraffin. Sectional cuts of 3 μm are made with a microtome. The tissues are coloured using hematoxyline (which colours the cell nuclei blue-black) and eosin, which is specific to the colouration of cytoplasms. The morphological structure of the biopsies is then assessed under transmission microscope.

Assay [4] deals with Clock protein. Kind of assay: Immunohistochemistry (immunolabeling) of Clock protein in cultured fibroblasts. The assay is classed as cell-based. As to conditions: 18 hr, peptide diluted 1% (from a 10^-4M solution), versus untreated. As to the method: as §1
Cultured fibroblasts are cultivated in 8-well chambers (labteck) at 37° C. in a humidified atmosphere containing 5% CO2 for 18 hr in the presence or absence of the peptide SEQ ID no.1, diluted 1% (from a 10^−4M solution). Untreated cells are cultivated at the same time and serve as a control. On the day of labeling the cells are rinsed, fixed in a mixture (2% glutaraldehyde—2% formaldehyde) for 3 minutes and then rinsed. The primary antibody (ABcam), diluted 1/250 is applied for 1 hour and a secondary antibody, diluted 1/50 and coupled to a fluorochrome is applied for 1 hour. The cells are then mounted between a slide and cover glass in a suitable mounting medium and observed under epifluorescence microscope.

Assay [5] concerns Per-1 protein. Kind of assay: Ex vivo immunolabeling of Per-1 protein in skin biopsies. Type of assay: cell-based. As to conditions: human skin ex vivo, peptide diluted to 1%, topical, 48 hr. As to the method: as §2, §3, §4
The immunolabeling for the Per-1 protein is carried out by a polyclonal antibody (Cosmobio) diluted 1/100 and a secondary antibody diluted 1/50 and coupled to a fluorochrome.
as §5

The test system of assay [6] is Clock protein. Kind of assay: Ex vivo immunolabeling of Clock protein in skin biopsies aged artificially during culture. Type of assay: cell-based, human. As to the method:
as §6, §7, §8, §5

Take “Ser-Pro-Leu-Gln-NH2 (SPLQ-NH2) [SEQ ID no.1]”: in the assay on Clock protein [1], the “Intensity (%) of Clock protein, western blot” value amounted to 179%. Further, in the assay on Clock protein [2], the “Amount of Clock protein compared with untreated skin” value is “slightly greater”. Moreover, in the assay with Per-1 protein [3], the “Expression of the PER-1 protein compared to untreated” value is “increased”. The “Morphological structure of skin biopsies / damage caused by aging” value in the assay on skin biopsies was “well-preserved morphological structure”. Moreover, the “Expression of the Clock protein by labeling in fibroblasts” value in the assay with Clock protein [4] is “increase in the expression of the Clock protein”. Besides, the “Amount of Per-1 protein compared with untreated skin” value in the assay with Per-1 protein [5] was “greater”. In addition, in the assay with Clock protein [6] (after 62 hr of culturing), the “Labeling of the Clock protein compared to untreated control” value was “increased”. Further, the “Labeling of the Clock protein compared to untreated control skin” value in the assay with Clock protein [6] (after 134 hr) was “largely increased”.
